Here are results for seven compounds from US8993611B2, “Family of polyamine arylethylamide compounds, and their cosmetic or dermocosmetic use” (Exsymol, priority 2012, dated 2015).

For series [1], the system named is Salmonella typhimurium (TA 100). In words: Test 3: detoxification of the reference glycotoxin methyl-glyoxal (MGO), Ames pre-incubation test. The class given is cell-based. As to the method: […] The resulting mixture was incubated 30 minutes at 37° C. under orbital stirring (122 rpm).
(§1) The counting of colonies was then achieved manually.
In addition to the N-((4-imidazolyl)ethyl)-α, β-diaminopropanamide compound, the following compounds according to the invention were also tested at different concentrations: • N-((4-hydroxyphenyl)ethyl)-α,β-diaminopropanamide • N-((4-imidazolyl)ethyl)-α,γ-diaminobutanamide • N-((3,4-dihydroxyphenyl)ethyl)-α,β-diaminopropanamide • N-((4-imidazolyl)ethyl)-L-lysinamide
The results are gathered in table 3 below, compared to the PBS phosphate buffer (negative control).

Series [2] has the same test system. In words: Test 2: detoxification of glycotoxins released by fructosylated casein, Ames pre-incubation test without metabolic activator. The class given is cell-based. The conditions noted are these: for Number of revertants: TA 100, PBS control 84.
From the text: The study was achieved on a Salmonella typhimurium (TA 100) bacterial strain which belongs to reference strains used for the Ames regulatory test (ICH steering committee, Jul. 19, 1995, Guidance on specific aspect of regulatory genotoxicity tests for pharmaceuticals). The objective was to determine, in the mutated strains' colonies, the number of revertant colonies which are representative of mutagenesis in casein-fructose system, with or without a compound according to the invention.
Experimentally, 2.7 g of D-(+)-fructose were solubilized at room temperature in 100 mL of phosphate buffer. After collecting 20 g of the colourless limpid solution (Cfructose=150 mM), 0.600 g of sodium caseinate were introduced until complete dissolution. The solution was then introduced in 2×10mL in screw-top test tubes, then placed in an oil bath at 120° C. during 1 h.
To different concentrations (400 μl) of compound according to the invention were successively added 500 μl of glycated casein and 100 μl of the above-mentioned bacterial suspension. The resulting mixture was incubated 30 minutes at 37° C. under orbital stirring (122 rpm).
as §1
The results are presented in table 2 below, compared to a negative control (PBS phosphate buffer).

The subject of series [3] is purified histones, enriched with H1 histones. In words: Test 1: protection of histones towards methyl-glyoxal (MGO), fluorimetry of the dialyzed mixture. The class given is biochemical. The conditions noted are these: for RFU (fluorescence of dialyzed mixture, indicative of histone damage by MGO): compound 10 mM + histones + MGO 10 mM, 24 h at 37° C., excitation 340 nm, emission 470 nm, control histones + MGO 62231; for formation of non-enzymatic glycosylation products from reaction of glycotoxin with histones: result in words. As to the method: A solution of purified histones (5 mg/l), enriched with H1 histones, was incubated in the presence of the reference glycotoxin MGO (10 mM) during 24 h at 37° C. under stirring. In order to follow specifically fluorescence of products from non-enzymatic glycosylation of histones, it was necessary to get rid of MGO fluorescence as well as the one of the glycotoxin-trapper products. For this, the reaction mixture was dialyzed. Then it was introduced in a dialysis tape and three successive 3 hour-baths were run, each one in a NaH2PO4 buffer solution (83.3 mM) in which MGO was diluted. Dialyzed mixture fluorescence which was indicative of the damage of histones made by reaction with MGO (adduct formation) was measured by fluorimetry (λ excitation: 340 nm; λ emission: 470 nm). The measure unit corresponds to RFU (for “Relative Fluorescence Unit”).

The subject of series [4] is Salmonella typhimurium (TA 100). The conditions noted are these: positive control; PBS control 88.
Description: The study was carried out according to an almost-identical manner to the here-above test 2, with however D-glucose replacing D-(+)-fructose and according to following conditions. Experimentally, 18.02 g of D-glucose were solubilized at room temperature in 100 mL of water. 10 mL of the solution corresponding to 10 mM of the compound according to the invention, N-((4-imidazolyl)ethyl)-α,β-diamino-propanamide, were sampled and introduced after a pH adjustment by sodium hydroxide. The resulting reaction mixture was then introduced in a screw-top test tube, then heated at 100° C. for 80 minutes.
In parallel, the TA 100 strain was cultured in the Nutrient Broth Oxoid N° 2 (NBO2) supplemented with Ampicilline. The culture was placed overnight at 37° C. in an orbital shaker (88 rpm) so that bacteria were in growth exponential phase (10^7 to 10^9 bacteria/ml).
100 μl of test solution were added to 100 μl of the above-mentioned bacterial suspension and to 500 μl of PBS phosphate buffer, the resulting mixture being incubated 1 h at 37° C. under orbital stirring (122 rpm). 2 ml of soft-agar supplemented in biotin histidine and maintained at 45° C. were added. After mixing with Vortex, they were deposited in a Petri dish containing Vogel-Bonner hard-agar. After solidification, dishes were transferred in the incubator at 37° C. during 48-72 h. […]
Where [5] appears, read: compound 75 μM + methyl-glyoxal 140 μM, PBS control 91, MGO alone 161.
Setting [6] is: compound 750 μM + methyl-glyoxal 140 μM, PBS control 91, MGO alone 161.

Read-outs that look alike come from different tables or passages of the source.

Turning to `CC(=O)C=O` [Methyl-glyoxal, methyl-glyoxal, reference compound], the Number of revertants in series [1] (methyl-glyoxal alone 140 μM, PBS control 91) stood at 161; in series [1] (methyl-glyoxal alone 280 μM, PBS control 72), 308.
In the case of `NCC(N)C(=O)NCCc1ccc(O)c(O)c1` (stereo not drawn) [N-((3,4-dihydroxyphenyl)ethyl)-α,β-diaminopropanamide], the values for the Number of revertants in series [1] (setting [5]) and in series [1] (setting [6]) were 161 and 111, respectively.
Regarding `NCC(N)C(=O)NCCc1ccc(O)cc1` (stereo not drawn) [N-((4-hydroxyphenyl)ethyl)-α,β-diaminopropanamide], the Number of revertants in series [1] (setting [5]) is on record as 152.
Regarding `NCCCC[C@H](N)C(=O)NCCc1c[nH]cn1` [N-((4-imidazolyl)ethyl)-L-lysinamide], the Number of revertants in series [1] (setting [5]) turned out to be 141; in series [1] (setting [6]), 132.
For `NCC(N)C(=O)NCCc1c[nH]cn1` (stereo not drawn) [N-((4-imidazolyl)ethyl)-α,β-diaminopropanamide], the RFU in series [2] (compound 7.5 mM + fructosylated casein, PBS control = 1) is 1.42 RFU. Also, the Number of revertants in series [2] (compound 7.5 mM + fructosylated casein) is recorded as 119; in series [2] (compound 15 mM + fructosylated casein) it was 93; in series [1] (compound 75 μM + methyl-glyoxal 280 μM, PBS control 72, MGO alone 308) it was 141; in series [1] (compound 750 μM + methyl-glyoxal 280 μM, PBS control 72, MGO alone 308), 95. Moreover, the “revertant count relative to PBS control” value in series [2] (compound 15 mM + fructosylated casein, PBS control = 1) is 1.11 RFU. The “toxicity of the formed glycotoxins” value in series [2] (result in words, dose-effect relationship observed) is recorded as “strongly decrease”. For the same compound, the “RFU (fluorescence of dialyzed mixture, indicative of histone damage by MGO)” value in series [3] was 20441 RFU. In series [3], the “formation of non-enzymatic glycosylation products from reaction of glycotoxin with histones” value is “strongly decrease”.
For `NCCC(N)C(=O)NCCc1c[nH]cn1` (stereo not drawn) [N-((4-imidazolyl)ethyl)-α,γ-diaminobutanamide], the Number of revertants in series [1] (setting [5]) was found to be 154. In addition, in series [1] (setting [6]), the Number of revertants is reported as 116. In addition, in series [3], the “RFU (fluorescence of dialyzed mixture, indicative of histone damage by MGO)” value was determined as 21526 RFU and the “formation of non-enzymatic glycosylation products from reaction of glycotoxin with histones” value is listed as “strongly decrease”.
On to `[N-]=[N+]=[N-]` [NaN3, sodium azide], for which, in series [4], the Number of revertants is recorded as 211.
